Laboratory results reported in patent US11312705B2, “Heteroaryl[4,3-C]pyrimidine-5-amine derivative, preparation method therefor, and medical uses thereof” (Jiangsu Hengrui Medicine Co., Ltd., priority 2017, dated 2022).

Tests used:
[1] = target: adenosine A2a receptor (A2aR) (Homo sapiens (Human), UniProt P29274); test: Inhibition of adenosine A2a receptor cAMP signaling pathway (HTRF cAMP, CHO-K1/A2aR cells); format: cell-based
From the text: (§1) Test Example 1. Determination of the inhibition activity of the compounds of the present invention on the adenosine A2a receptor (A2aR) cAMP signaling pathway, the adenosine A2b receptor (A2bR) cAMP signaling pathway, the adenosine A1 receptor (A1R) cAMP signaling pathway and the adenosine A3 receptor (A3R) cAMP signaling pathway.
(§2) The inhibition activity of the compounds of the present invention on the adenosine A2a receptor cAMP signaling pathway, the adenosine A2b receptor cAMP signaling pathway, the adenosine A1 receptor cAMP signaling pathway and the adenosine A3 receptor cAMP signaling pathway was determined by the following method. The experimental method is briefly described as follows:
2.1 Adenosine A2a Receptor
CHO-K1/A2aR cells were cultured in DMEM/F12 medium containing 10% fetal bovine serum and 800 μg/ml bleomycin. The cells were digested with the cell separation buffer during the experiment. The cells were resuspended in the balanced salt buffer containing 20 mM HEPES and 0.1% bovine serum albumin and counted, and the cell density was adjusted to 10^6 cells/ml. In the 384-well plate, each well was added with 5 μl of cell suspension, and 2.5 μl of test compound (4× concentration) formulated with the balanced salt buffer containing 20 mM HEPES, 0.1% bovine serum albumin, 54 μM rolipram and 2.7 U/ml adenosine deaminase, and the plate was incubated at room temperature for 30 minutes. Each well was then added with 2.5 μl of […] (4× concentration) formulated with the balanced salt buffer containing 20 mM HEPES, 0.1% bovine serum albumin, 54 μM rolipram and 2.7 U/ml adenosine deaminase, and the plate was incubated at room temperature for 30 minutes. The final concentrations of the compounds were: 10000, 2000, 400, 80, 16, 3.2, 0.64, 0.128, 0.0256, 0.00512, and 0.001024 nM. The final concentration of […] was 20 nM. Intracellular cAMP concentration was detected with the cAMP dynamic 2 kit. cAMP-d2 and Anti-cAMP-Eu-Cryptate were diluted respectively with the cAMP lysis buffer at a ratio of 1:4. Each well was added with 5 μl of diluted cAMP-d2, followed by addition of 5 μl of diluted Anti-cAMP-Eu-Cryptate, and the plate was incubated at room temperature in the dark for 1 hour. The HTRF signal values were read by the PHERAstar multi-function microplate reader.

[2] = target: adenosine A2b receptor (A2bR) (Homo sapiens (Human), UniProt P29275); test: Inhibition of adenosine A2b receptor cAMP signaling pathway (HTRF cAMP, CHO-K1/A2bR cells); format: cell-based; conditions: Table 3; for IC50: CHO-K1/A2bR cells, ethyl carbazole 1 μM, cAMP HTRF; for IC50 ratio (A2bR/A2aR): selectivity A2bR over A2aR
Sequence of adenosine A2b receptor (A2bR) (P29275 whole entry): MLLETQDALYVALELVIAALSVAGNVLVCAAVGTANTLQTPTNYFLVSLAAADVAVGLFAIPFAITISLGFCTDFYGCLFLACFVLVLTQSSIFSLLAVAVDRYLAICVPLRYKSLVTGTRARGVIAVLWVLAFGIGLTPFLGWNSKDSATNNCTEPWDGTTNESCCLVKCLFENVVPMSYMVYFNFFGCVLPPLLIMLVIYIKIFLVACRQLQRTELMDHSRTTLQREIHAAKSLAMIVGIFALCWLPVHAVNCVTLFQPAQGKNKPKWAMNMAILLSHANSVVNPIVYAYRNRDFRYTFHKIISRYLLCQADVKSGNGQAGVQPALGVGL
From the text: as §1, §2
2.4 Adenosine A2b receptor (A2bR)
CHO-K1/A2bR cells were cultured in DMEM/F12 medium containing 10% fetal bovine serum and 1 mg/ml G418. The cells were digested with the cell separation buffer during the experiment. The cells were resuspended in the balanced salt buffer containing 20 mM HEPES and 0.1% bovine serum albumin and counted, and the cell density was adjusted to 10^6 cells/ml. In the 384-well plate, each well was added with 5 μl of cell suspension, and 2.5 μl of test compound (4× concentration) formulated with the balanced salt buffer containing 20 mM HEPES, 0.1% bovine serum albumin, 54 μM rolipram and 2.7 U/ml adenosine deaminase, and the plate was incubated at room temperature for 30 minutes. Each well was then added with 2.5 μl of […] (4× concentration) (Torcis, 1691/10) formulated with the balanced salt buffer containing 20 mM HEPES, 0.1% bovine serum albumin, 54 μM rolipram and 2.7 U/ml adenosine deaminase, and the plate was incubated at room temperature for 30 minutes. The final concentrations of the compounds were: 100000, 10000, 1000, 100, 10, 1, 0.1 and 0 nM. The final concentration of […] was 1 μM. Intracellular cAMP concentration was detected with the cAMP dynamic 2 kit. cAMP-d2 and Anti-cAMP-Eu-Cryptate were diluted respectively with the cAMP lysis buffer at a ratio of 1:4. Each well was added with 5 μl of diluted cAMP-d2, followed by addition of 5 μl of diluted Anti-cAMP-Eu-Cryptate, and the plate was incubated at room temperature in the dark for 1 hour. The HTRF signal values were read by the PHERAstar multi-function microplate reader.

Sequence of adenosine A2a receptor (A2aR) (P29274 whole entry): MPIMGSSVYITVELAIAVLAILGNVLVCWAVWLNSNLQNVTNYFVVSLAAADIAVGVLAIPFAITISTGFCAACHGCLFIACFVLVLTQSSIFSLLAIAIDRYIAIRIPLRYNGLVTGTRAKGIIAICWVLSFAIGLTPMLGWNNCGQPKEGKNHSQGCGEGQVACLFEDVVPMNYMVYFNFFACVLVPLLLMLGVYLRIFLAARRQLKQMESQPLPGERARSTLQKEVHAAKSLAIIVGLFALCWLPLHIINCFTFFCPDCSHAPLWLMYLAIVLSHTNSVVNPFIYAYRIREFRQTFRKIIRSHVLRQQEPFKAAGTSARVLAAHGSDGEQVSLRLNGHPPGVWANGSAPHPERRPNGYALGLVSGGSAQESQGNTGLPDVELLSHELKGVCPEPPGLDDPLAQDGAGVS

Structure (SMILES)	IC50 ([1]; Table 1, ethyl carbazole 20 nM) [nM]	IC50 ([1]; Table 3, ethyl carbazole 20 nM) [nM]	IC50 [2] [nM]	IC50 ratio (A2bR/A2aR) [2]
Cc1cc(-c2c(-c3ccccc3)nc(N)n3cnnc23)cc(C(F)(F)F)n1 [Example 1, 8-(2-Methyl-6-(trifluoromethyl)pyridin-4-yl)-7-phenyl-[1,2,4]triazolo[4,3-c]pyrimidin-5-amine]	0.23	0.23	58.5	254
Nc1nc(-c2ccccc2)c(-c2cc(C(F)(F)F)c3[nH]ncc3c2)c2nncn12 [Example 9, 7-Phenyl-8-(7-(trifluoromethyl)-1H-indazol-5-yl)-[1,2,4]triazolo[4,3-c]pyrimidin-5-amine]	0.25	–	–	–
Nc1nc(-c2ccccc2)c(-c2ccc3[nH]ncc3c2)c2nncn12 [Example 10, 8-(1H-indazol-5-yl)-7-phenyl-[1,2,4]triazolo[4,3-c]pyrimidin-5-amine]	0.26	0.26	91	350
Cc1cc(-c2c(-c3ccccc3)nc(N)n3cnnc23)ccn1 [Example 12, 8-(2-Methylpyridin-4-yl)-7-phenyl-[1,2,4]triazolo[4,3-c]pyrimidin-5-amine]	0.63	–	–	–
Cc1cc(-c2c(-c3ccc(Cl)cc3)nc(N)n3cnnc23)cc(C(F)(F)F)n1 [Example 14, 7-(4-Chlorophenyl)-8-(2-methyl-6-(trifluoromethyl)pyridin-4-yl)-[1,2,4]triazolo[4,3-c]pyrimidin-5-amine]	1.56	–	–	–
Cc1cc(-c2c(-c3ccc(F)cc3)nc(N)n3cnnc23)cc(Cl)n1 [Example 15, 8-(2-Chloro-6-methylpyridin-4-yl)-7-(4-fluorophenyl)-[1,2,4]triazolo[4,3-c]pyrimidin-5-amine]	0.17	0.17	98.9	582
Cc1cc(-c2c(-c3ccc(F)cc3)nc(N)n3cnnc23)cc(C(F)(F)F)n1 [Example 16, 7-(4-Fluorophenyl)-8-(2-methyl-6-(trifluoromethyl)pyridin-4-yl)-[1,2,4]triazolo[4,3-c]pyrimidin-5-amine]	0.63	0.63	122	194
Cc1cc(-c2c(-c3ccccc3)nc(N)n3cc(C)nc23)cc(C)n1 [Example 21, 8-(2,6-Dimethylpyridin-4-yl)-2-methyl-7-phenylimidazo[1,2-c]pyrimidin-5-amine]	2.46	–	–	–
Nc1nc(-c2ccccc2)c(-c2cc(Cl)nc(C(F)(F)F)c2)c2nncn12 [Example 23, 8-(2-Chloro-6-(trifluoromethyl)pyridin-4-yl)-7-phenyl-[1,2,4]triazolo[4,3-c]pyrimidin-5-amine]	0.23	–	–	–
Cc1cc(-c2c(-c3ccccc3)nc(N)n3ccnc23)cc(Cl)n1 [Example 24, 8-(2-Chloro-6-methylpyridin-4-yl)-7-phenylimidazo[1,2-c]pyrimidin-5-amine]	0.27	–	–	–
COc1cc(-c2c(-c3ccccc3)nc(N)n3cnnc23)cc(C)n1 [Example 25, 8-(2-Methoxy-6-methylpyridin-4-yl)-7-phenyl-[1,2,4]triazolo[4,3-c]pyrimidin-5-amine]	0.32	–	–	–
CCc1cc(-c2c(-c3ccccc3)nc(N)n3cnnc23)cc(C)n1 [Example 26, 8-(2-Ethyl-6-methylpyridin-4-yl)-7-phenyl-[1,2,4]triazolo[4,3-c]pyrimidin-5-amine]	0.42	–	–	–
Cc1cc(-c2c(-c3cccc(F)c3)nc(N)n3cnnc23)cc(C(F)(F)F)n1 [Example 29, 7-(3-Fluorophenyl)-8-(2-methyl-6-(trifluoromethyl)pyridin-4-yl)-[1,2,4]triazolo[4,3-c]pyrimidin-5-amine]	0.55	0.55	86.3	157
Cc1cc(-c2c(-c3ccccc3)nc(N)n3cnnc23)cc(C2CC2)n1 [Example 30, 8-(2-Cyclopropyl-6-methylpyridin-4-yl)-7-phenyl-[1,2,4]triazolo[4,3-c]pyrimidin-5-amine]	0.77	0.77	70.9	92
Cc1cc(-c2c(-c3ccccc3)nc(N)n3ccnc23)cc(C)n1 [Example 31, 8-(2,6-Dimethylpyridin-4-yl)-7-phenylimidazo[1,2-c]pyrimidin-5-amine]	0.93	–	–	–
Cc1cc(-c2c(-c3ccc(Cl)cc3)nc(N)n3cnnc23)cc(Cl)n1 [Example 36, 8-(2-Chloro-6-methylpyridin-4-yl)-7-(4-chlorophenyl)-[1,2,4]triazolo[4,3-c]pyrimidin-5-amine]	3.47	–	–	–
Nc1nc(-c2ccccc2)c(-c2ccnc(Cl)c2)c2nncn12 [Example 38, 8-(2-Chloropyridin-4-yl)-7-phenyl-[1,2,4]triazolo[4,3-c]pyrimidin-5-amine]	2.18	–	–	–
Cc1cc(-c2c(-c3ccc(Cl)cc3)nc(N)n3cnnc23)cc(CF)n1 [Example 53, 7-(4-Chlorophenyl)-8-(2-(fluoromethyl)-6-methylpyridin-4-yl)-[1,2,4]triazolo[4,3-c]pyrimidin-5-amine]	0.35	–	–	–

More lines, in order of falling IC50 ([1]; Table 1, ethyl carbazole 20 nM), values ahead:

IC50 ([1]; Table 1, ethyl carbazole 20 nM) [nM]	IC50 ([1]; Table 3, ethyl carbazole 20 nM) [nM]	IC50 [2] [nM]	IC50 ratio (A2bR/A2aR) [2]	Structure (SMILES)
2.11	–	–	–	Nc1nc(-c2ccccc2)c(-c2ccncc2)c2nncn12 [Example 37, 7-Phenyl-8-(pyridin-4-yl)-[1,2,4]triazolo[4,3-c]pyrimidin-5-amine]
1.75	–	–	–	Cc1cc(-c2c(-c3ccc(F)cc3F)nc(N)n3cnnc23)cc(C)n1 [Example 40, 7-(2,4-Difluorophenyl)-8-(2,6-dimethylpyridin-4-yl)-[1,2,4]triazolo[4,3-c]pyrimidin-5-amine]
1	–	–	–	Cc1cc(-c2c(-c3ccc(F)cc3)nc(N)n3ccnc23)cc(C)n1 [Example 32, 8-(2,6-Dimethylpyridin-4-yl)-7-(4-fluorophenyl)imidazo[1,2-c]pyrimidin-5-amine]
0.75	–	–	–	Cc1cc(-c2c(-c3ccccc3)nc(N)n3ccnc23)cc(C(F)(F)F)n1 [Example 17, 8-(2-Methyl-6-(trifluoromethyl)pyridin-4-yl)-7-phenylimidazo[1,2-c]pyrimidin-5-amine]
0.48	–	–	–	Cc1cc(-c2c(-c3ccc(Cl)cc3)nc(N)n3cnnc23)cc(C)n1 [Example 54, 7-(4-Chlorophenyl)-8-(2,6-dimethylpyridin-4-yl)-[1,2,4]triazolo[4,3-c]pyrimidin-5-amine]
0.2	–	–	–	CC(C)n1cc(-c2c(-c3ccccc3)nc(N)n3cnnc23)ccc1=O [Example 43, 5-(5-Amino-7-phenyl-[1,2,4]triazolo[4,3-c]pyrimidin-8-yl)-1-isopropylpyridin-2(1H)-one]
0.18	0.18	203	1125	Cc1cc(-c2c(-c3ccc(C)o3)nc(N)n3cnnc23)cc(C(F)(F)F)n1 [Example 8, 8-(2-Methyl-6-(trifluoromethyl)pyridin-4-yl)-7-(5-methylfuran-2-yl)-[1,2,4]triazolo[4,3-c]pyrimidin-5-amine]
0.18	–	–	–	Cc1ccc(-c2nc(N)n3cnnc3c2-c2cc(C)nc(Cl)c2)cc1 [Example 35, 8-(2-Chloro-6-methylpyridin-4-yl)-7-(p-tolyl)-[1,2,4]triazolo[4,3-c]pyrimidin-5-amine]
0.14	–	–	–	Nc1nc(-c2ccccc2)c(-c2cc(F)c3[nH]ncc3c2)c2nncn12 [Example 6, 8-(7-Fluoro-1H-indazol-5-yl)-7-phenyl-[1,2,4]triazolo[4,3-c]pyrimidin-5-amine]
